This note sets out measurements from patent US10851083B2, “Benzoimidazoles as prolyl hydroxylase inhibitors” (Janssen Pharmaceutica NV, priority 2008, dated 2020).

In assay [1] the test system is Hep-3B cells. Kind of assay: Cellular assay: EPO secretion in Hep-3B cells. Type of assay: cell-based, human. Details: EPO secretion, % of control compound: dose or concentration left out as unconfirmed. The settings on record: Homo sapiens, Hep3B, 24 h, EPO secretion as percentage of control compound 7-[(4-Chloro-phenyl)-(5-methyl-isoxazol-3-ylamino)-methyl]-quinolin-8-ol, read-out: Cellular % EPO Stimulation.

Assay [2] concerns the target human PHD2181-417 (Homo sapiens (Human), UniProt Q9GZT9). Kind of assay: PHD2 enzyme activity assay ([14C]-succinic acid production).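 Also: reaction ran 10 min with compound in Tris pH 7.5 buffer with catalase, DTT and ascorbate, labelled succinate freed of leftover 2-oxoglutarate by DNP precipitation, then beta counted.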 It is filed as biochemical. The conditions noted are these: PHD2181-417 polypeptide, HIF-1α peptide 10 μM, [5-14C]-2-oxoglutaric acid; 30 min pre-incubation; tested 10 μM to 3 nM.

Sequence of human PHD2181-417 (Q9GZT9 181-417): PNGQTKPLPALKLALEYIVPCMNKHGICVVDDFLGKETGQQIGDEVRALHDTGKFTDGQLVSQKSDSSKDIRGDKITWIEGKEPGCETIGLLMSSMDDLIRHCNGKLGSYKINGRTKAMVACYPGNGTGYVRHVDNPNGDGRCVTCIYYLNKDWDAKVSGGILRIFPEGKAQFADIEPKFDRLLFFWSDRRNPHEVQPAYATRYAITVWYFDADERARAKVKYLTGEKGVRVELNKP

As to `O=C(O)c1cnn(-c2nc3cc(Oc4ccc(Cl)cc4)c(Cl)cc3[nH]2)c1` [Example 51, 1-[6-Chloro-5-(4-chloro-phenoxy)-1H-benzoimidazol-2-yl]-1H-pyrazole-4-carboxylic Acid], the EPO secretion, % of control compound in assay [1] turned out to be 150%. Besides, in assay [2], the “Enzyme pIC50” value came to 7.4.
In the same order, the values of `O=C(O)c1cnn(-c2nc3cc(Oc4ccc(Cl)cc4)c(OC(F)(F)F)cc3[nH]2)c1` [Example 52, 1-[5-(4-Chloro-phenoxy)-6-trifluoromethoxy-1H-benzoimidazol-2-yl]-1H-pyrazole-4-carboxylic Acid] are 21.6% and 7.4.
In the same order, the values of `O=C(O)c1cnn(-c2nc3cc(Oc4ccccc4)c(OC(F)(F)F)cc3[nH]2)c1` [Example 53, 1-(5-Phenoxy-6-trifluoromethoxy-1H-benzoimidazol-2-yl)-1H-pyrazole-4-carboxylic Acid] are 138% and 7.2.
As to `O=C(O)c1cnn(-c2nc3cc(Oc4ccc(F)cc4)c(C(F)(F)F)cc3[nH]2)c1` [Example 54, 1-[5-(4-Fluoro-phenoxy)-6-trifluoromethyl-1H-benzoimidazol-2-yl]-1H-pyrazole-4-carboxylic Acid], the EPO secretion, % of control compound in assay [1] is 75.5%. For the same compound, in assay [2], the “Enzyme pIC50” value was 7.3.
In the case of `O=C(O)c1cnn(-c2nc3cc(Oc4ccc(Cl)cc4)c(C(F)(F)F)cc3[nH]2)c1` [Example 55, 1-[5-(4-Chloro-phenoxy)-6-trifluoromethyl-1H-benzoimidazol-2-yl]-1H-pyrazole-4-carboxylic Acid], in assay [1], the EPO secretion, % of control compound stood at 44.2%. Besides, in assay [2], the “Enzyme pIC50” value was determined as 7.5.
As to `O=C(O)c1cnn(-c2nc3cc(Oc4ccccc4)c(C(F)(F)F)cc3[nH]2)c1` [Example 56, 1-(5-Phenoxy-6-trifluoromethyl-1H-benzoimidazol-2-yl)-1H-pyrazole-4-carboxylic Acid], the EPO secretion, % of control compound in assay [1] came to 143%. Further, the “Enzyme pIC50” value in assay [2] is given as 7.2.
As to `O=C(O)c1cnn(-c2nc3cc(Oc4ccccc4)c(Cl)cc3[nH]2)c1` [Example 57, 1-(6-Chloro-5-phenoxy-1H-benzoimidazol-2-yl)-1H-pyrazole-4-carboxylic Acid], in assay [1], the EPO secretion, % of control compound was found to be 55%. Moreover, in assay [2], the “Enzyme pIC50” value is 6.9.
As to `Cc1ccc2c(n1)c(Br)cc1nc(-n3cc(C(=O)O)cn3)[nH]c12` [Example 58, 1-(5-Bromo-7-methyl-1H-imidazo[4,5-f]quinolin-2-yl)-1H-pyrazole-4-carboxylic Acid], the EPO secretion, % of control compound in assay [1] worked out at 50%. The “Enzyme pIC50” value in assay [2] turned out to be 7.2.
With `O=C(O)c1cnn(-c2nc3cc(OCc4ccccc4)c(Cl)cc3[nH]2)c1` [Example 59, 1-(5-Benzyloxy-6-chloro-1H-benzoimidazol-2-yl)-1H-pyrazole-4-carboxylic Acid], in assay [1], the EPO secretion, % of control compound stood at 55.9%. Also, in assay [2], the “Enzyme pIC50” value was 6.4.
Take `Cc1cccc(Sc2cc3nc(-n4cc(C(=O)O)cn4)[nH]c3cc2Cl)c1` [Example 60, 1-(6-Chloro-5-m-tolylsulfanyl-1H-benzoimidazol-2-yl)-1H-pyrazole-4-carboxylic Acid]: the EPO secretion, % of control compound in assay [1] came out at 42.3%. For the same compound, the “Enzyme pIC50” value in assay [2] was determined as 6.9.
For `O=C(O)c1cnn(-c2nc3cc(Sc4ccc(Cl)cc4)c(Cl)cc3[nH]2)c1` [Example 61, 1-[6-Chloro-5-(4-chloro-phenylsulfanyl)-1H-benzoimidazol-2-yl]-1H-pyrazole-4-carboxylic Acid], the EPO secretion, % of control compound in assay [1] amounted to 101%. In addition, the “Enzyme pIC50” value in assay [2] was found to be 7.07.
Regarding `O=C(O)c1cnn(-c2nc3cc(Sc4ccccc4)c(Cl)cc3[nH]2)c1` [Example 62, 1-(6-Chloro-5-phenylsulfanyl-1H-benzoimidazol-2-yl)-1H-pyrazole-4-carboxylic Acid], the EPO secretion, % of control compound in assay [1] amounted to 45.8%. Besides, the “Enzyme pIC50” value in assay [2] was determined as 6.75.
Take `O=C(O)c1cnn(-c2nc3cc(Sc4ccc(Cl)c(Cl)c4)c(Cl)cc3[nH]2)c1` [Example 63, 1-[6-Chloro-5-(3,4-dichloro-phenylsulfanyl)-1H-benzoimidazol-2-yl]-1H-pyrazole-4-carboxylic Acid]: the EPO secretion, % of control compound in assay [1] was 26.5%. Also, the “Enzyme pIC50” value in assay [2] is 6.18.
Take `COc1cccc(Sc2cc3nc(-n4cc(C(=O)O)cn4)[nH]c3cc2Cl)c1` [Example 64, 1-[6-Chloro-5-(3-methoxy-phenylsulfanyl)-1H-benzoimidazol-2-yl]-1H-pyrazole-4-carboxylic Acid]: the EPO secretion, % of control compound in assay [1] came to 38.3%. Moreover, the “Enzyme pIC50” value in assay [2] amounted to 6.9.
As to `COc1ccc(Sc2cc3nc(-n4cc(C(=O)O)cn4)[nH]c3cc2Cl)cc1` [Example 65, 1-[6-Chloro-5-(4-methoxy-phenylsulfanyl)-1H-benzoimidazol-2-yl]-1H-pyrazole-4-carboxylic Acid], in assay [1], the EPO secretion, % of control compound was found to be 56.3%. The “Enzyme pIC50” value in assay [2] was found to be 6.6.
Regarding `O=C(O)c1cnn(-c2nc3cc(SCc4ccccc4)c(Cl)cc3[nH]2)c1` [Example 66, 1-(5-Benzylsulfanyl-6-chloro-1H-benzoimidazol-2-yl)-1H-pyrazole-4-carboxylic Acid], in assay [1], the EPO secretion, % of control compound worked out at 41.6%. Moreover, the “Enzyme pIC50” value in assay [2] was 6.7.
On to `CC(C)(C)c1ccc(CSc2cc3nc(-n4cc(C(=O)O)cn4)[nH]c3cc2Cl)cc1` [Example 67, 1-[5-(4-tert-Butyl-benzylsulfanyl)-6-chloro-1H-benzoimidazol-2-yl]-1H-pyrazole-4-carboxylic Acid], for which, in assay [1], the EPO secretion, % of control compound worked out at 11.7%. Moreover, the “Enzyme pIC50” value in assay [2] worked out at 7.2.
The like results for `O=C(O)c1cnn(-c2nc3cc(SCc4ccc(F)cc4)c(Cl)cc3[nH]2)c1` [Example 68, 1-[6-Chloro-5-(4-fluoro-benzylsulfanyl)-1H-benzoimidazol-2-yl]-1H-pyrazole-4-carboxylic Acid] were, in that order, 58.4% and 6.8.
The like results for `O=C(O)c1cnn(-c2nc3cc(SCc4ccccc4Cl)c(Cl)cc3[nH]2)c1` [Example 69, 1-[6-Chloro-5-(2-chloro-benzylsulfanyl)-1H-benzoimidazol-2-yl]-1H-pyrazole-4-carboxylic Acid] were, in that order, 85.3% and 6.8.
In the case of `O=C(O)c1cnn(-c2nc3cc(SCCc4ccccc4)c(Cl)cc3[nH]2)c1` [Example 70, 1-(6-Chloro-5-phenethylsulfanyl-1H-benzoimidazol-2-yl)-1H-pyrazole-4-carboxylic Acid], the EPO secretion, % of control compound in assay [1] turned out to be 74.2%. Also, the “Enzyme pIC50” value in assay [2] is given as 6.7.
As to `CSc1cc2[nH]c(-n3cc(C(=O)O)cn3)nc2cc1C(F)(F)F` [Example 71, 1-(6-Methylsulfanyl-5-trifluoromethyl-1H-benzoimidazol-2-yl)-1H-pyrazole-4-carboxylic Acid], the EPO secretion, % of control compound in assay [1] stood at 114%. For the same compound, in assay [2], the “Enzyme pIC50” value was 7.1.
On to `CSc1cc2[nH]c(-n3cc(C(=O)O)cn3)nc2cc1F` [Example 74, 1-(5-Fluoro-6-methylsulfanyl-1H-benzoimidazol-2-yl)-1H-pyrazole-4-carboxylic Acid], for which the EPO secretion, % of control compound in assay [1] stood at 77.8%. In addition, the “Enzyme pIC50” value in assay [2] came out at 6.9.
The like results for `CSc1cc2[nH]c(-n3cc(C(=O)O)cn3)nc2cc1Cl` [Example 75, 1-(5-Chloro-6-methylsulfanyl-1H-benzoimidazol-2-yl)-1H-pyrazole-4-carboxylic Acid] were, in that order, 106% and 7.
